Reference: patent US4916220A, “Palmitoyl-fructose-1,6-diphosphate, its therapeutic use and relevant preparation methods” (Biomedica Foscama Industria Chimico-Farmaceutica, priority 1988, dated 1990)
Where two headings read alike, the source gives them in different places.

Key:
[1] = tested on: entrance of ^45Ca in small slices of heart; assay: Effect on the entrance of ^45Ca in small slices of heart; assay type: cell-based; details: 3 min. at 25° C., 0.5 mM Ca; for effect on the entrance of ^45Ca: result in words
Experimental: The effect on the entrance of ^45 Ca in small slices of heart incubated for 3 min. at 25° C. with 0.5 mM Ca is inhibitory both with FDP and with DPF and therefore both seem to protect the tissue from the anoxy occurring with the entrance of Ca.

[2] = tested on: organs (heart, kidneys, liver); assay: Radioactivity accumulated in organs after administration per os to rats; assay type: in vivo, rat; details: 3,000,000 dpm total, 1 hour after administration
Experimental: The administration to rats of ^14 C-FDP and ^14 C-DPF per os (3,000,000 dpm total) allowed measurement of the radioactivity accumulated 1 hour after administration at the level of the organs and the results are reported in Table 2.

[3] = tested on: perfused rat heart; assay: Action on perfused rat heart (inotropic and chronotropic); assay type: cell-based; details: for EC50: biphasic inotropic and chronotropic effect, read-out: ED50 (perfused rat heart); for action on perfused heart (inotropic and chronotropic): result in words, final concentration
[4] = tested on: small slices of rat heart; assay: Attack of ^14C-FDP and ^14C-DPF to small slices of rat heart; assay type: cell-based; details: for Attack to small slices of rat heart: 5 mM, 40 min incubation at 25° C., 3 tests average
From the text: Small slices of rat heart were used to study comparatively the attack of ^14 C-FDP and ^14 C-DPF, the latter obtained by palmitoylation of a mixture of "hot" and "cold" FDP.

IC50 ([1]; 0.05 h) [µM]	EC50 ([3]; Rattus norvegicus) [µM]	Compound	IC50 [1] [µM]	effect on the entrance of ^45Ca [1]	Accumulation of radioactivity, Heart [2]	Accumulation of radioactivity, Kidneys [2]	Accumulation of radioactivity, Liver [2]	EC50 [3] [µM]	action on perfused heart (inotropic and chronotropic) [3]	Attack to small slices of rat heart [4] [nmoles/100 mg]	membrane affinity higher than that of FDP ([4]; relative to FDP) [%]
–	–	palmitoyl-fructose-1,6-diphosphate [DPF]	5500	inhibitory	1620	1324	1434	40	biphasic effect but its effect appears at lower doses	344 ± 16	30
8000	100	O=C(COP(=O)(O)O)[C@@H](O)[C@H](O)[C@H](O)COP(=O)(O)O [FDP, fructose-1,6-diphosphate]	–	inhibitory	508	395	624	–	biphasic, i.e. inotropic and chronotropic, positive at concentrations lower than 1 mM (final) and negative for higher concentrations	260 ± 20	–
